RP-LC retention time data for 34 molecules are collected here from the METLIN SMRT retention time set (Domingo-Almenara et al. 2019).

Structures are written as SMILES.

The data set can be described thus: gradient 5% acetonitrile 3 min, to 50% in 2 min, to 85% in 15 min, held 3 min, 100 µL/min. The note with it: column: Zorbax Extend-C18 2.1 x 50 mm; eluents: water / acetonitrile, 0.1% formic acid. The method in brief: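 The mobile phases were water and acetonitrile, each with 0.1% formic acid, pumped at 100 μL/min through a Zorbax Extend-C18 column (2.1 × 50 mm, 1.8 μm). Pure standards were injected as mixtures of ~100 molecules and detected by a quadrupole time-of-flight mass spectrometer in positive and negative ionization mode. Retention time came from computationally picked adduct peaks, each inspected by hand.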
In turn, `CCCC(=O)N1CCCC(c2nc(CNC(=O)C(C)C)cs2)C1` (centres undefined) showed an RP-LC retention time of 671 s. To `Cc1cccc2nnc(N3CCC(C(=O)Nc4cccc(F)c4)CC3)n12` belongs 697 s; to `Cn1c(C(=O)NCCN2CCOCC2)cc2c(=O)oc3ccccc3c21`, 603 s; to `O=C(C1=NN(Cc2ccccc2)c2cc(Cl)ccc2S1(=O)=O)N1CCOCC1`, 864 s. To `O=C(NCc1cccc(Cl)c1)C1CCCN(c2ncnc3c2nc2n3CCCCC2)C1` (centres undefined) belongs 804 s; to `CC(C)CCNC(=O)C1CCN(S(=O)(=O)c2ccc3c(c2)NC(=O)CO3)CC1`, 744 s. `CCOC(=O)c1c(S(=O)(=O)N2CCC(C(=O)Nc3cccnc3)CC2)c(C)n(C)c1C` displayed an RP-LC retention time of 623 s. Turning to `O=C(COc1ccc(Cl)cc1)Nc1nnc(Cc2cccs2)o1`, the RP-LC retention time turned out to be 796 s. For `Cc1nc(N2CCOCC2)c2c(C(=O)N3CCN(c4cc(Cl)ccc4C)CC3)c(C)oc2n1` the value was 983 s; for `COc1ccc(-c2nc(-c3ccc4c(c3)oc(=O)n4C)no2)cc1`, 1020 s; for `COc1ccc(CNC(=O)COc2nc(C)nc3ccccc23)cc1`, 678 s. In turn, `Cc1ccc(-c2ccc(N3CCCC(C(=O)NC4CCCC4)C3)nn2)cc1C` (centres undefined) had an RP-LC retention time of 738 s. For the molecule `Cc1ccc(CNC(=O)c2nnc(-c3ccc(S(=O)(=O)N(C)C)cc3)o2)o1`, the RP-LC retention time amounted to 826 s. As for `O=C(c1cncnc1)N1CCCn2ccnc2C1C1CCCC1` (centres undefined), the RP-LC retention time was 572 s.

In turn, `Cc1ccnc(N2CCCC(C(=O)NCCSCc3ccco3)C2)n1` (centres undefined) came in with an RP-LC retention time of 709 s. In the case of `O=C(NCC(F)(F)F)C1CN(C(=O)c2ccc(F)c(F)c2)C1`, the RP-LC retention time stood at 667 s. For `CCc1nnc2ccc(-c3noc(-c4cc(F)ccc4F)n3)cn12` the value was 896 s; for `O=C(C1CC(=O)N(c2n[nH]c3ccccc23)C1)N1CCN(c2ccc(Cl)cc2)CC1` (centres undefined), 799 s.

The molecule `CCOC(=O)CCNC(=O)N1CCN(Cc2nnnn2-c2ccc(F)c(F)c2)CC1` displayed an RP-LC retention time of 688 s. For `O=C(NCCc1c[nH]c2ccccc12)C1CCN(c2ccncc2)CC1` the value was 610 s; for `Cc1ccc(NC(=O)C(=O)NCC2(O)CCOCC2)cc1N1CCCC1=O`, 575 s. Molecule `Cc1nn(C(C)C(=O)NCCN(C)C)c(=O)c2nn(-c3ccccc3)c(C)c12` (centres undefined) gave an RP-LC retention time of 601 s.

On to `Cc1cc(-c2nnc(-c3ccccc3)o2)c(C)n1CC(=O)NCc1ccco1`, for which the RP-LC retention time stood at 826 s. `Cc1cccc2c(=O)n(C3CCN(S(=O)(=O)c4ccccc4F)CC3)cnc12` gave an RP-LC retention time of 940 s. For `O=C(NCc1nc(-c2ccc3c(c2)ncn3C2CCCC2)no1)c1ccco1` the value was 655 s; for `Fc1ccccc1N1CCN(c2ncccc2-c2nnc(-c3ccccc3)o2)CC1`, 1150 s; for `Cc1nn(CC(=O)NCc2ccncc2)c(=O)c2nc(-c3ccccc3)sc12`, 615 s.

Molecule `Cn1nc(-c2nc(C3CC3)no2)c2c1CCN(C(=O)Nc1ccc(C(F)(F)F)cc1)C2` returned an RP-LC retention time of 959 s.

`NC(=O)COC1CCC12CCN(C(=O)c1ccc3c(c1)OCO3)CC2` (centres undefined) registered an RP-LC retention time of 662 s. Molecule `CC1CCCCN1CCNC(=O)c1cc(=O)n2c(nc3ccccc32)s1` (centres undefined) showed an RP-LC retention time of 626 s. For `CC(=O)Nc1nc(-c2ccc(F)c(F)c2)cs1` the value was 766 s; for `Fc1ccccc1-c1nnc(CN2CCN(c3ccccn3)CC2)o1`, 596 s. For `COc1ccc2nc(C(=O)NCc3ccc(C)cc3)cn2n1` the value was 843 s; for `COCc1cc(=O)n(CC(=O)Nc2cccc(F)c2)c(N)n1`, 618 s.
